Source: PMC8386120, “Crystal Structure of Inorganic Pyrophosphatase From Schistosoma japonicum Reveals the Mechanism of Chemicals and Substrate Inhibition” (Frontiers in Cell and Developmental Biology, 2021)

What was measured:
[1] = target: T1, SjPPase (Schistosoma japonicum, UniProt Q5DE13); test: Pi release, PiPer fluorescence phosphate assay; assay type: biochemical; set-up: homodimer; crystal residues 1-284 and 1-283; conditions: 1 and 2 mM MDP; PPi substrate, Mg2+, 25 C
T1 sequence (Q5DE13 1-287): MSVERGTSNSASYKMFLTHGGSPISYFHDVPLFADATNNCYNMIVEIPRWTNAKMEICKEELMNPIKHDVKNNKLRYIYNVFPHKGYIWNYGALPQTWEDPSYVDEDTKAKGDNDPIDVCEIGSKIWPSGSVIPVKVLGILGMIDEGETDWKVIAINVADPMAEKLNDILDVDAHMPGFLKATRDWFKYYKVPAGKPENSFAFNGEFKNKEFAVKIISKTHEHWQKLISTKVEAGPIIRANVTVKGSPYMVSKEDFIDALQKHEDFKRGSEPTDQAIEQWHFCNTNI

[2] = target: T1, SjPPase; conditions: Co2+ bound; active site, P2 site (F intermediate)
[3] = target: Schistosoma japonicum soluble inorganic pyrophosphatase (recombinant SjPPase) (Schistosoma japonicum); test: crystal structure; X-ray crystal structures of apo-SjPPase (4QMB) and of SjPPase with Pi and cobalt ions (4QLZ); space group P32, two molecules in the asymmetric unit; first crystals from 0.2 M sodium malonate, 20% PEG 3,350, later optimised; protein at 16-18 mg/ml

## O=P(O)(O)CP(=O)(O)O [methylene diphosphonic acid]
[1]
  inhibition: inhibitors NaF and MDP inhibited the enzymatic activity of SjPPase

## O=P(O)(O)O [orthophosphate]
[2]
  X-ray crystal structure, 2.33 A: the Pi in the SjPPase-Pi complex structure is at the P2 site

## Schistosoma japonicum soluble inorganic pyrophosphatase (recombinant SjPPase) (enzyme)
[3]
  stoichiometry N: 2
